Structures can show the parent of a compound that is named as a salt.
System: Acinetobacter baumannii ATCC 17978
Experiment: Antimicrobial susceptibility testing: 90% growth inhibitory concentration (IC90) determination
Assay type: cell-based
Conditions: 90% growth inhibitory concentration; Acinetobacter baumannii ATCC17978; Iso-Sensitest broth, OD 600 nm over 16h; read-out: ATCC17978 IC90
Method in brief: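 Growth of the Acinetobacter baumannii strain was followed by optical density at 600 nm every 20 minutes for 16h at 35±2° C. Inoculum was ~5×10^(5) CFU/ml in Iso-Sensitest medium, with twofold compound dilutions (e.g. 50 to 0.097 μM final). The 90% inhibitory concentration was derived in log-phase growth.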

Row | Compound | IC90 [nM]
1 | COc1ccc(-c2cnc3c(Nc4ccc(C(=O)NCCC5CCOCC5)c(C)c4)nccn23)cc1F [Example 37, 4-[[3-(3-fluoro-4-methoxy-phenyl)imidazo[1,2-a]pyrazin-8-yl]amino]-2-methyl-N-(2-tetrahydropyran-4-ylethyl)benzamide; 2,2,2-trifluoroacetic acid] | 240
2 | COc1ccc(-c2cnc3c(Nc4ccc(C(=O)N(C)CCN5CCNCC5)c(Cl)c4)nccn23)c(F)c1F [Example 44, 2-chloro-4-[[3-(2,3-difluoro-4-methoxy-phenyl)imidazo[1,2-a]pyrazin-8-yl]amino]-N-methyl-N-(2-piperazin-1-ylethyl)benzamide; 2,2,2-trifluoroacetic acid] | 120
3 | CCc1cc(Nc2nccn3c(-c4ccc(OC)c(F)c4F)cnc23)ccc1C(=O)N[C@H](CN)C(=O)OC [Example 310, methyl (2R)-3-amino-2-[[4-[[3-(2,3-difluoro-4-methoxyphenyl)imidazo[1,2-a]pyrazin-8-yl]amino]-2-ethylbenzoyl]amino]propanoate; hydrochloride] | 800
4 | CCc1cc(Nc2nccn3c(-c4ccc(OC)c(F)c4F)cnc23)ccc1C(=O)NCCCNC(=O)CC[C@H](NC(=O)[C@@H](N)CCCCN)C(=O)O [Example 403, N2-(L-lysyl)-N5-(3-(4-((3-(2,3-difluoro-4-methoxyphenyl)imidazo[1,2-a]pyrazin-8-yl)amino)-2-ethylbenzamido)propyl)-L-glutamine trihydrochloride] | 940
5 | N#CCOc1ccc(-c2cnc3c(Nc4ccc(C(=O)NCCc5nnn[nH]5)c(Cl)c4)nccn23)c(F)c1F [Example 104, 2-chloro-4-[[3-[4-(cyanomethoxy)-2,3-difluoro-phenyl]imidazo[1,2-a]pyrazin-8-yl]amino]-N-[2-(1H-tetrazol-5-yl)ethyl]benzamide] | 1100

Same assay, conditions: Acinetobacter baumannii, ATCC17978, 16 h, 90% growth inhibitory concentration; Acinetobacter baumannii ATCC17978; Iso-Sensitest broth, OD 600 nm over 16h; read-out: ATCC17978 IC90

Row | Compound | IC90 [nM]
6 | CCc1cc(Nc2nccn3c(-c4ccc(OC)c(F)c4F)cnc23)ccc1C(=O)NCCCNC(=O)CN [Example 103, N-(3-(2-aminoacetamido)propyl)-4-((3-(2,3-difluoro-4-methoxyphenyl)imidazo [1,2-a]pyrazin-8-yl)amino)-2-ethylbenzamide hydrochloride] | 80
7 | COc1ccc(-c2cnc3c(Nc4ccc(C(=O)NCC5CNCCN5)c(C)c4)nccn23)cc1F (stereo not shown) [Example 246, 4-[[3-(3-fluoro-4-methoxyphenyl)imidazo[1,2-a]pyrazin-8-yl]amino]-2-methyl-N-(piperazin-2-ylmethyl)benzamide;hydrochlo-ride] | 2200
8 | CCc1cc(Nc2nccn3c(-c4ccc(OC)c(F)c4F)cnc23)ccc1C(=O)NCCC(=O)N1CCN[C@H](CO)C1 [Example 160, 4-[[3-(2,3-difluoro-4-methoxy-phenyl)imidazo[1,2-a]pyrazin-8-yl]amino]-2-ethyl-N-[3-[(3S)-3-(hydroxymethyl)piperazin-1-yl]-3-oxo-propyl]benzamide] | 150
9 | Cc1cc(Nc2nccn3c(-c4ccc(Cl)c(F)c4F)cnc23)ccc1C(=O)N(C)CCCN [Example 228, N-(3-aminopropyl)-4-[[3-(4-chloro-2,3-difluorophenyl)imidazo[1,2-a]pyrazin-8-yl]amino]-N,2-dimethylbenzamide;hydrochlo-ride] | 1200
10 | COc1ccc(-c2cnc3c(Nc4ccc(C(=O)NCCCN)c(C)c4)nccn23)cc1 [Example 51, N-(3-aminopropyl)-4-((3-(4-methoxyphenyl)imidazo [1,2-a]pyrazin-8-yl)amino)-2-methylbenzamide hydrochloride] | 960
11 | COc1ccc(-c2cnc3c(Nc4ccc(C(=N)OCC(=N)N(C)C)c(C)c4)nccn23)cc1 [Example 16] | 810
12 | CN(CCC1CCNCC1)C(=O)c1ccc(Nc2nccn3c(-c4ccc(OC(F)F)cc4)cnc23)cc1Cl [Example 23, 2-chloro-4-((3-(4-(difluoromethoxy)phenyl)imidazo[1,2-a]pyrazin-8-yl)amino)-N-methyl-N-(2-(piperidin-4-yl)ethyl)benzamide hydrochloride] | 150
13 | COc1ccc(-c2cnc3c(Nc4ccc(C(=O)NCCO)cc4)nccn23)cc1Cl [Example 243, 4-[[3-(3-chloro-4-methoxyphenyl)imidazo[1,2-a]pyrazin-8-yl]amino]-N-(2-hydroxyethyl)benzamide] | 2100
14 | COc1ccc(-c2cnc3c(Nc4ccc(C(=O)NCCN5CCNCC5=O)c(C)c4)nccn23)cc1F [Example 248, 4-[[3-(3-fluoro-4-methoxyphenyl)imidazo[1,2-a]pyrazin-8-yl]amino]-2-methyl-N-[2-(2-oxopiperazin-1-yl)ethyl]benzamide;hydrochlo-ride] | 2400
15 | CCc1cc(Nc2nccn3c(-c4ccc(OC)c(F)c4F)cnc23)ccc1C(=O)NC(C)(C)CN [Example 99, N-(1-amino-2-methylpropan-2-yl)-4-((3-(2,3-difluoro-4-methoxyphenyl)imidazo [1,2-a]pyrazin-8-yl)amino)-2-ethylbenzamide hydrochloride] | 350
16 | Cc1cc(Nc2nccn3c(-c4ccc(OC(F)F)cc4)cnc23)ccc1C(=O)N(C)CCN1CCOC(C)(C)C1 [Example 255, 4-[[3-[4-(difluoromethoxy)phenyl]im-idazo[1,2-a]pyrazin-8-yl]amino]-N-[2-(2,2-dimethylmorpholin-4-yl)ethyl]-N,2-dimethylbenzamide] | 2200
17 | CCc1cc(Nc2nccn3c(-c4ccc(OCC#CCOCCN)c(F)c4F)cnc23)ccc1C(=O)NCCCN [Example 159, 4-[[3-[4-[4-(2-aminoethoxy)but-2-ynoxy]-2,3-difluoro-phenyl]imidazo[1,2-a]pyrazin-8-yl]amino]-N-(3-aminopropyl)-2-ethyl-benzamide] | 230

Further lines, results first:

Row | IC90 [nM] | Compound
18 | 150 | COc1ccc(-c2cnc3c(Nc4ccc(C(=O)NCCNC(=O)[C@@H]5C[C@](C)(O)CN5)c(C)c4)nccn23)c(F)c1F [Example 372, (2S,4S)-N-[2-[[4-[[3-(2,3-difluoro-4-methoxyphenyl)imidazo[1,2-a]pyrazin-8-yl]amino]-2-methylbenzoyl]amino]ethyl]-4-hydroxy-4-methylpyrrolidine-2-carboxamide]
19 | 520 | COc1ccc(-c2cnc3c(Nc4ccc(C(=O)NCCNC(=O)CC[C@@H]5NC5=O)c(C)c4)nccn23)c(F)c1F [Example 337, 4-[[3-(2,3-difluoro-4-methoxyphenyl)imidazo[1,2-a]pyrazin-8-yl]amino]-2-methyl-N-[2-[3-[(2S)-3-oxoaziridin-2-yl]propanoylamino]ethyl]benz-amide]
20 | 37 | CCc1cc(Nc2nccn3c(-c4ccc(OC)c(F)c4F)cnc23)ccc1C(=O)NCCCCCCN [Example 494, N-(6-aminohexyl)-4-((3-(2,3-difluoro-4-methoxyphenyl)imidazo[1,2-a]pyrazin-8-yl)amino)-2-ethylbenzamide hydrochloride]
21 | 210 | CCc1cc(Nc2nccn3c(-c4ccc(OC(F)F)c(F)c4F)cnc23)ccc1C(=O)N[C@@H](C)CNC(=O)C1CCNCC1 (racemic) [Example 552, rac-(R)-N-(2-(4-((3-(4-(difluoromethoxy)-2,3-difluorophenyl)imidazo[1,2-a]pyrazin-8-yl)amino)-2-ethylbenzamido)propyl)piper-idine-4-carboxamide formate]
22 | 520 | CCc1cc(Nc2nccn3c(-c4ccc(Oc5nccc(OC)n5)c(F)c4F)cnc23)ccc1C(=O)N[C@@H](C)CN [Example 462, (S)-N-(1-aminopropan-2-yl)-4-((3-(2,3-difluoro-4-((4-methoxypyrimidin-2-yl)oxy)phenyl)imidazo[1,2-a]pyrazin-8-yl)amino)-2-ethylbenzamide]
23 | 480 | CCc1cc(Nc2nccn3c(-c4ccc(OC)c(F)c4F)cnc23)ccc1C(=O)NCC[C@H](C)NC(=O)[C@@H](N)CCCNC(=N)N [Example 336, N-[(3S)-3-[[(2S)-2-amino-5-carbamimidamidopentanoyl]amino]butyl]-4-[[3-(2,3-difluoro-4-methoxyphenyl)imidazo[1,2-a]pyrazin-8-yl]amino]-2-ethylbenzamide; hydrochloride]
24 | 310 | C#CCOc1ccc(-c2cnc3c(Nc4ccc(C(=O)NCCCN)c(CC)c4)nccn23)c(F)c1F [Example 394, N-(3-aminopropyl)-4-[[3-(2,3-difluoro-4-prop-2-ynoxy-phenyl)imidazo[1,2-a]pyrazin-8-yl]amino]-2-ethyl-benzamide; formic acid]
25 | 100 | COc1ccc(-c2cnc3c(Nc4ccc(C(=O)N[C@H](C)CN)c(Cl)c4)nccn23)c(F)c1F [Example 504, #N!-[(2#R!)-1-aminopropan-2-yl]-2-chloro-4-[[3-(2,3-difluoro-4-methoxyphenyl)imidazo[1,2-a]pyrazin-8-yl]amino]benzamide;dihydro-chloride]
26 | 120 | COc1ccc(-c2cnc3c(Nc4ccc(C(=O)N[C@@H](C)CNC(C)=N)c(Cl)c4)nccn23)c(F)c1F [Example 487, 2-chloro-4-[[3-(2,3-difluoro-4-methoxyphenyl)imidazo[1,2-a]pyrazin-8-yl]amino]-#N!- [(2#S!)-1-(ethanimidoylamino)propan-2-yl]benzamide;formic acid]
27 | 560 | CCc1cc(Nc2nccn3c(-c4ccc(OC)c(F)c4F)cnc23)ccc1C(=O)NCCNC(=O)NCCN [Example 339, N-[2-(2-aminoethylcarbamoylamino)ethyl]-4-[[3-(2,3-difluoro-4-methoxyphenyl)imidazo[1,2-a]pyrazin-8-yl]amino]-2-ethylbenzamide]
28 | 80 | CCc1cc(Nc2nccn3c(-c4ccc(OC)c(F)c4F)cnc23)ccc1C(=O)NCc1ccncc1 [Example 560, 4-((3-(2,3-difluoro-4-methoxyphenyl)imidazo[1,2-a]pyrazin-8-yl)amino)-2-ethyl-N-(pyridin-4-ylmethyl)benzamide formate]

From patent US20230012368A1 (Hoffmann-La Roche Inc., priority 2018, published 2023)
